Patent US20260070945A1, “MACROCYCLIC IMMUNOMODULATORS” (Bristol-Myers Squibb Company, priority 2022, published 2026)
Where a SMILES comes first, the peptide text is derived from it. Bridges are numbered along the chain shown (N, C = ends). [ ]: non-standard residue; d: D form. The star is where a group is joined. ξ: configuration not given here. Phe(3-CF3) = N[C@@H](Cc1cccc(C(F)(F)F)c1)C(=O)O; Ala(morpholin-4-yl) = N[C@@H](CN1CCOCC1)C(=O)O; Phe(4-COOH) = N[C@@H](Cc1ccc(C(=O)O)cc1)C(=O)O; Bip = N[C@@H](Cc1ccc(-c2ccccc2)cc1)C(=O)O; Phe(3-Me) = Cc1cccc(C[C@H](N)C(=O)O)c1; NH(CH2)12COOH = O=C(O)CCCCCCCCCCCCN*; Val(3-OH) = CC(C)(O)[C@H](N)C(=O)O; hArg = N=C(N)NCCCC[C@H](N)C(=O)O; 4Pal = N[C@@H](Cc1ccncc1)C(=O)O; Aad = N[C@@H](CCCC(=O)O)C(=O)O; Cha = N[C@@H](CC1CCCCC1)C(=O)O; Ile(3ξ) = CCC(C)[C@H](N)C(=O)O; Ala(CN) = N#CC[C@H](N)C(=O)O; 4Abz = Nc1ccc(C(=O)O)cc1; Carboxymethyl = O=C(O)C*; NMeA = CN[C@@H](C)C(=O)O; Orn = NCCC[C@H](N)C(=O)O; Aun = NCCCCCCCCCCC(=O)O; Dab = NCC[C@H](N)C(=O)O; Dap = NC[C@H](N)C(=O)O; AEEA = NCCOCCOCC(=O)O; Sar = CNCC(=O)O

target: T1, PD-1/PD-L1 interaction (PE-labeled human PD-L1-Ig binding to Jurkat cell line over-expressing human PD-1) (Homo sapiens, UniProt Q15116); experiment: Jurkat-PD-1 Cell Binding High-Content Screening Assay (CBA); conditions: Jurkat-hPD-1 cells, PE-labeled PD-L1-Ig 20 nM final; read-out: Jurkat HPD1 PDL1 IC50
T1 construct: expressed in transfected cells; host or cells: Jurkat
How it was run: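 Binding of 20 nM (final) PE-tagged PD-L1-Ig to compound-pretreated Jurkat-hPD-1 cells was measured by high-content imaging after 1 h. Pretreatment ran 2 h at 37 °C in DMEM with 10% fetal calf serum.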

T1 sequence (Q15116 25-288): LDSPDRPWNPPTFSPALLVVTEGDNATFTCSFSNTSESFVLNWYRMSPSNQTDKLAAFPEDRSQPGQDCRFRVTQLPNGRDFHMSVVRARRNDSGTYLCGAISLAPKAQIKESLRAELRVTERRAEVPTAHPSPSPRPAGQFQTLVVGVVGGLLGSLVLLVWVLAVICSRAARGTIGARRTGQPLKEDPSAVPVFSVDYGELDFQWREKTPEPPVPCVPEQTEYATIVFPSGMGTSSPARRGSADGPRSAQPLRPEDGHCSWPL

| SMILES | IC50 [nM] |
| --- | --- |
| CC(C)C[C@@H]1NC(=O)[C@H](Cc2c[nH]c3ccccc23)NC(=O)[C@H](CC(=O)O)NC(=O)[C@H](Cc2ccc(C(=O)O)cc2)NC(=O)[C@H](Cc2ccc(OCC(=O)O)cc2)NC(=O)CSC[C@@H](C(=O)NCCOCCOCC(=O)NCCCCCCCCCCC(=O)O)NC(=O)[C@H](Cc2cnc[nH]2)NC(=O)[C@H](C(C)(C)O)NC(=O)[C@H](CC2CCCCC2)NC(=O)[C@H](CCN)NC(=O)[C@@H](CC(C)C)NC(=O)[C@H](C)N(C)C(=O)[C@H](C(C)C)NC(=O)[C@H](Cc2ccc(-c3ccccc3)cc2)NC1=O [Example 1121] ({CH2CO}-Y(Carboxymethyl)[Phe(4-COOH)]DWL[Bip]V[NMeA][dL][Dab][Cha][Val(3-OH)]HC[AEEA][Aun]-OH; thioether N-14) | 8.1 |
| CC(=O)NCCCC[C@@H]1NC(=O)[C@H](C(C)C)NC(=O)[C@H](CC2CCCCC2)NC(=O)[C@H](CCN)NC(=O)[C@@H](CC(C)C)NC(=O)[C@H](C)N(C)C(=O)[C@H](Cc2ccc(O)cc2)NC(=O)[C@H](Cc2ccc(-c3ccccc3)cc2)NC(=O)[C@H](C(C)C)NC(=O)[C@H](Cc2cccc(C)c2)NC(=O)[C@H](CC(=O)O)NC(=O)[C@H](Cc2ccc(OCC(=O)O)cc2)NC(=O)[C@H](Cc2ccc(O)cc2)NC(=O)CSC[C@@H](C(=O)N(C)CC(=O)NCCCCCCCCCCC(=O)O)NC1=O [Example 2275] ({CH2CO}-YY(Carboxymethyl)D[Phe(3-Me)]V[Bip]Y[NMeA][dL][Dab][Cha]VK(Ac)C[Sar][Aun]-OH; thioether N-14) | 282 |
| CC(C)C[C@@H]1NC(=O)[C@H](Cc2c[nH]c3ccccc23)NC(=O)[C@H](CC(=O)O)NC(=O)[C@H](Cc2ccncc2)NC(=O)[C@H](Cc2ccc(OCC(=O)O)cc2)NC(=O)CSC[C@@H](C(=O)Nc2ccc(C(=O)NCCCCCCCCCCC(=O)O)cc2)NC(=O)[C@H](CCCNC(=N)N)NC(=O)[C@H](C(C)C)NC(=O)[C@H](CC2CCCCC2)NC(=O)[C@H](CCN)NC(=O)[C@@H](CC(C)C)NC(=O)[C@H](C)N(C)C(=O)[C@H](C(C)C)NC(=O)[C@H](Cc2ccc(-c3ccccc3)cc2)NC1=O [Example 1214] ({CH2CO}-Y(Carboxymethyl)[4Pal]DWL[Bip]V[NMeA][dL][Dab][Cha]VRC[4Abz][Aun]-OH; thioether N-14) | 77.2 |
| CCC(C)[C@@H]1NC(=O)[C@H](Cc2ccc(-c3ccccc3)cc2)NC(=O)[C@H](CC(C)C)NC(=O)[C@H](Cc2c[nH]c3ccccc23)NC(=O)[C@H](CC(=O)O)NC(=O)[C@H](Cc2ccc(O)cc2)NC(=O)[C@H](CC#N)NC(=O)CSC[C@@H](C(=O)N[C@@H](CN)C(=O)NCCOCCOCC(=O)NCCCCCCCCCCC(=O)O)NC(=O)[C@H](CO)NC(=O)[C@H](C(C)C)NC(=O)[C@H](CC2CCCCC2)NC(=O)[C@H](CCN)NC(=O)[C@@H](CC(C)C)NC(=O)[C@H](C)N(C)C1=O (stereo partly drawn) [Example 2054] ({CH2CO}-[Ala(CN)]YDWL[Bip][Ile(3ξ)][NMeA][dL][Dab][Cha]VSC[Dap][AEEA][Aun]-OH; thioether N-14) | 14.3 |
| Cc1cccc(C[C@@H]2NC(=O)[C@H](CC(=O)O)NC(=O)[C@H](Cc3ccc(OCC(=O)O)cc3)NC(=O)[C@H](CN)NC(=O)CSC[C@@H](C(=O)N[C@@H](CCN)C(=O)NCCCCCCCCCCC(=O)O)NC(=O)[C@H](CCCN)NC(=O)[C@H](C(C)C)NC(=O)[C@H](CC(C)C)NC(=O)[C@H](CCN)NC(=O)[C@@H](CC(C)C)NC(=O)[C@H](C)N(C)C(=O)[C@H](Cc3ccc(O)cc3)NC(=O)[C@H](Cc3ccc(-c4ccccc4)cc3)NC(=O)[C@H](Cc3ccc(O)cc3)NC2=O)c1 [Example 1255] ({CH2CO}-[Dap]Y(Carboxymethyl)D[Phe(3-Me)]Y[Bip]Y[NMeA][dL][Dab]LV[Orn]C[Dab][Aun]-OH; thioether N-14) | 206 |
| CC(=O)NCCCC[C@@H]1NC(=O)[C@H](C(C)(C)O)NC(=O)[C@H](CC2CCCCC2)NC(=O)[C@H](CCN)NC(=O)[C@@H](CC(C)C)NC(=O)[C@H](C)N(C)C(=O)[C@H](CCC(N)=O)NC(=O)[C@H](Cc2ccc(-c3ccccc3)cc2)NC(=O)[C@H](Cc2ccc(C(=O)O)cc2)NC(=O)[C@H](Cc2cccc(C(F)(F)F)c2)NC(=O)[C@H](CC(=O)O)NC(=O)[C@H](Cc2ccc(OCC(=O)O)cc2)NC(=O)[C@H](CN2CCOCC2)NC(=O)CSC[C@@H](C(=O)N[C@@H](CCN)C(=O)NCCCCCCCCCCCCC(=O)O)NC1=O [Example 1153] ({CH2CO}-[Ala(morpholin-4-yl)]Y(Carboxymethyl)D[Phe(3-CF3)][Phe(4-COOH)][Bip]Q[NMeA][dL][Dab][Cha][Val(3-OH)]K(Ac)C[Dab]-{NH(CH2)12COOH}; thioether N-14) | 12.9 |
| CC[C@H](C)[C@@H]1NC(=O)[C@H](Cc2ccc(-c3ccccc3)cc2)NC(=O)[C@H](CC(C)C)NC(=O)[C@H](Cc2c[nH]c3ccccc23)NC(=O)[C@H](CC(=O)O)NC(=O)[C@H](Cc2ccc(OCC(=O)O)cc2)NC(=O)[C@H](CCCCNC(=N)N)NC(=O)CSC[C@@H](C(=O)NCCOCCOCC(=O)N[C@@H](CCN)C(=O)NCCCCCCCCCCC(=O)O)NC(=O)[C@H](CCCCN)NC(=O)[C@H](C(C)C)NC(=O)[C@H](CC2CCCCC2)NC(=O)[C@H](CCN)NC(=O)[C@H]2CCCN2C(=O)[C@H](C)N(C)C1=O [Example 2186] ({CH2CO}-[hArg]Y(Carboxymethyl)DWL[Bip]I[NMeA][dP][Dab][Cha]VKC[AEEA][Dab][Aun]-OH; thioether N-14) | 158 |

Second part, the compound after the results:

| IC50 [nM] | SMILES |
| --- | --- |
| 7.1 | CC(C)C[C@@H]1NC(=O)[C@H](Cc2c[nH]c3ccccc23)NC(=O)[C@H](CC(=O)O)NC(=O)[C@H](Cc2ccncc2)NC(=O)[C@H](Cc2ccc(OCC(=O)O)cc2)NC(=O)CSC[C@@H](C(=O)N[C@@H](CN)C(=O)NCCOCCOCC(=O)NCCCCCCCCCCC(=O)O)NC(=O)[C@H](CO)NC(=O)[C@H](C(C)C)NC(=O)[C@H](CC2CCCCC2)NC(=O)[C@H](CCN)NC(=O)[C@@H](CC(C)C)NC(=O)[C@H](C)N(C)C(=O)[C@H](C(C)C)NC(=O)[C@H](Cc2ccc(-c3ccccc3)cc2)NC1=O [Example 1088] ({CH2CO}-Y(Carboxymethyl)[4Pal]DWL[Bip]V[NMeA][dL][Dab][Cha]VSC[Dap][AEEA][Aun]-OH; thioether N-14) |
| 14.1 | CC(C)C[C@@H]1NC(=O)[C@H](Cc2c[nH]c3ccccc23)NC(=O)[C@H](CC(=O)O)NC(=O)[C@H](Cc2ccncc2)NC(=O)[C@H](Cc2ccc(OCC(=O)O)cc2)NC(=O)CSC[C@@H](C(=O)N[C@@H](CCN)C(=O)NCCCCCCCCCCC(=O)O)NC(=O)[C@H](CCC(=O)O)NC(=O)[C@H](C(C)C)NC(=O)[C@H](CC2CCCCC2)NC(=O)[C@H](CCN)NC(=O)[C@@H](CC(C)C)NC(=O)[C@H](C)N(C)C(=O)[C@H](C(C)C)NC(=O)[C@H](Cc2ccc(-c3ccccc3)cc2)NC1=O [Example 1330] ({CH2CO}-Y(Carboxymethyl)[4Pal]DWL[Bip]V[NMeA][dL][Dab][Cha]VEC[Dab][Aun]-OH; thioether N-14) |
| 44 | CCC(C)[C@@H]1NC(=O)[C@H](Cc2ccc(-c3ccccc3)cc2)NC(=O)[C@H](CC(C)C)NC(=O)[C@H](Cc2c[nH]c3ccccc23)NC(=O)[C@H](CC(=O)O)NC(=O)[C@H](Cc2ccc(O)cc2)NC(=O)[C@H](Cc2ccncc2)NC(=O)CSC[C@@H](C(=O)N[C@@H](CCCN)C(=O)NCCOCCOCC(=O)NCCCCCCCCCCC(=O)O)NC(=O)[C@H](CO)NC(=O)[C@H](C(C)C)NC(=O)[C@H](CC2CCCCC2)NC(=O)[C@H](CCN)NC(=O)[C@@H](CC(C)C)NC(=O)[C@H](C)N(C)C1=O (stereo partly drawn) [Example 2073] ({CH2CO}-[4Pal]YDWL[Bip][Ile(3ξ)][NMeA][dL][Dab][Cha]VSC[Orn][AEEA][Aun]-OH; thioether N-14) |
| 9.2 | Cc1cccc(C[C@@H]2NC(=O)[C@H](CC(=O)O)NC(=O)[C@H](Cc3c[nH]cn3)NC(=O)[C@H](Cc3ccc(OCC(=O)O)cc3)NC(=O)CSC[C@@H](C(=O)N[C@@H](CCN)C(=O)NCCCCCCCCCCC(=O)O)NC(=O)[C@H](CCCC(=O)O)NC(=O)[C@H](C(C)C)NC(=O)[C@H](CC3CCCCC3)NC(=O)[C@H](CCN)NC(=O)[C@@H](CC(C)C)NC(=O)[C@H](C)N(C)C(=O)[C@H](C(C)C)NC(=O)[C@H](Cc3ccc(-c4ccccc4)cc3)NC(=O)[C@H](C(C)C)NC2=O)c1 [Example 2215] ({CH2CO}-Y(Carboxymethyl)HD[Phe(3-Me)]V[Bip]V[NMeA][dL][Dab][Cha]V[Aad]C[Dab][Aun]-OH; thioether N-14) |

same assay, conditions: PE-labeled PD-L1-Ig 20 nM final, Jurkat-hPD-1 cells; read-out: Jurkat HPD1 PDL1 IC50

| IC50 [nM] | SMILES |
| --- | --- |
| 148 | CCC(C)[C@@H]1NC(=O)[C@H](Cc2ccc(-c3ccccc3)cc2)NC(=O)[C@H](CC(C)C)NC(=O)[C@H](Cc2c[nH]c3ccccc23)NC(=O)[C@H](CC(=O)O)NC(=O)[C@H](Cc2ccc(OCC(=O)O)cc2)NC(=O)[C@H](Cc2ccncc2)NC(=O)CSC[C@@H](C(=O)N[C@@H](CCN)C(=O)NCCOCCOCC(=O)NCCCCCCCCCCC(=O)O)NC(=O)[C@H](CO)NC(=O)[C@H](C(C)(C)O)NC(=O)[C@H](CC2CCCCC2)NC(=O)[C@H](CCN)NC(=O)[C@@H](CC(C)C)NC(=O)[C@H](C)N(C)C1=O (stereo partly drawn) [Example 2502] ({CH2CO}-[4Pal]Y(Carboxymethyl)DWL[Bip][Ile(3ξ)][NMeA][dL][Dab][Cha][Val(3-OH)]SC[Dab][AEEA][Aun]-OH; thioether N-14) |
| 4.6 | CC(=O)NCCCC[C@@H]1NC(=O)[C@H](C(C)(C)O)NC(=O)[C@H](CC2CCCCC2)NC(=O)[C@H](CCN)NC(=O)[C@@H](CC(C)C)NC(=O)[C@H](C)N(C)C(=O)[C@H](CCC(N)=O)NC(=O)[C@H](Cc2ccc(-c3ccccc3)cc2)NC(=O)[C@H](Cc2ccc(C(=O)O)cc2)NC(=O)[C@H](Cc2cccc(C)c2)NC(=O)[C@H](CC(=O)O)NC(=O)[C@H](Cc2ccc(OCC(=O)O)cc2)NC(=O)[C@H](Cc2ccc(OCC(=O)O)cc2)NC(=O)CSC[C@@H](C(=O)N[C@@H](CCN)C(=O)NCCCCCCCCCCCCC(=O)O)NC1=O [Example 2563] ({CH2CO}-Y(Carboxymethyl)Y(Carboxymethyl)D[Phe(3-Me)][Phe(4-COOH)][Bip]Q[NMeA][dL][Dab][Cha][Val(3-OH)]K(Ac)C[Dab]-{NH(CH2)12COOH}; thioether N-14) |
